# Assay results reported in patent US4931475A, “Cholagogue and/or gallstone solubilizer” (Hiya Pharmaceutical Co., Ltd., priority 1985, dated 1990).
# Assays:
# secretion of bile [1] = test: Activity on the secretion of bile, intraduodenal administration; assay type: in vivo, Male Wister rats; settings: 5 hours
# Description: A. Intraduodenal administration
# Male Wister rats weighing 200 to 250 g were used, ten rats in each group. Each rat was fasted for 6 to 8 hours, and was thereafter fastened as laid on its back to a fixed table under ethereal anesthesia. The abdomen was cut open along the midline. A polyethylene tube was inserted into and attached to the common bile duct. The rat was then allowed to stand for a period of time (1 hour) to assure stabilized flow of bile. The amount of bile flowing out for the following period of 30 minutes was taken as 100 to serve as a control amount for the subsequent flow of bile.
# Next, the drug to be tested was intraduodenally administered to the rat, and the amount of bile flowing out from the polyethylene tube dropwise was measured over a period of 5 hours. The amount was measured for every 30-minute period of the first 2 hours after the administration of the drug and then for every one-hour period. Sodium dehydrocholate, bile acid preparation serving as a known cholagogue, was used as a control drug.
# The dose was 200 mg/kg (weight of rat) for bornyl glucoside, or 100 mg (drug)/kg (weight of rat) for other borneols and sodium dehydrocholate. The drugs were used as suspended in 4% aqueous solution of gum arabic. Experimental results
# Acute toxicity test = test: Acute toxicity test; parameters: species or system male dd-Y mice; settings: mouse, in vivo; oral, mice, 7 days, Litchfield-Wilcoxon method, 95% reliability limit
# Description: The drug to be tested was orally given to male dd-Y mice weighing about 20 g, ten mice in each group. The mice were thereafter observed for 7 days to determine the LD50 from the number of resulting deaths. During the 7-day observation period, the animals were allowed free access to diets and water. The LD50 was determined according to the Litchfield-Wilcoxon method.
# solids weight of bile = test: Variations in the weight of solids in discharged bile; assay type: in vivo, rats; settings: intraduodenal, 100 mg/kg, 5 hours, pre-administration 30 minutes = 100
# Description: A. Variations in the weight of solids in discharged bile
# The bile portions obtained from the bile secretion experiment (1)-A by intraduodenal administration were collected respectively for the observation periods. A quantity of each bile portion was freeze-dried, and the solids weight was measured to determine the variations in the solids weight of bile over the 5-hour period. The solids weight of bile obtained during the 30-minute period before the administration of the test drug, e.g. (+)-borneol, was calculated as 100.
# secretion of bile [2] = test: Activity on the secretion of bile, oral administration; assay type: in vivo, rats; settings: 5 hours
# Description: B. Oral Administration As in the case of intraduodenal administration, the drug to be tested was orally administered to rats each having a polyethylene tube attached to the common bile duct, and the amount of bile flowing out was observed over a period of 5 hours.
# [3] = test system: bile acid contents of bile; test: Variations in bile acid contents of bile (high-speed liquid chromatography); assay type: in vivo, rats; settings: intraduodenal, 100 mg/kg, first one-hour period, pre-administration 30 minutes = 100
# Source text: C. Variations in bile acid contents of bile
# Each portion of bile obtained during the first one-hour period of measurement in the foregoing bile secretion experiment (1)-A by intraduodenal administration was partly collected, then diluted 40-fold with freshly distilled methanol and thereafter filtered with use of a 0.45-micron membrane filter (product of Toyo Roshi). The filtrate was subjected to high-speed liquid chromatography according to the method of Okuyama S. et al., Chemistry Letters, p 1443 (1979). The bile acid contents of the bile flowing out during each measurement period were determined with reference to calibration curves prepared in advance for cholic acid, ursodeoxycholic acid, chenodeoxycholic acid and deoxycholic acid, and also for glycine conjugates and taurine conjugates of these acids. The total bile acid content was determined from the results. The bile acid contents and the total bile acid content of the bile flowing out during the period of 30 minutes before the administration of the test drug were taken as 100.
# [4] = test system: cholesterol content of bile; test: Variations in the cholesterol content of bile (Cholesterol CII-Test Wako); assay type: in vivo, rats; settings: intraduodenal, 100 mg/kg, first one-hour period, pre-administration 30 minutes = 100
# Description: (§1) B. Variations in the phospholipid and cholesterol contents of bile
# (§2) Portions of the bile obtained during the first one-hour period of measurement in the bile secretion experiment (1)-A by intraduodenal administration were tested for phospholipid using Phospholipid B-Test Wako (enzyme method, Wako Pure Chemical Industries Ltd.) and for cholesterol using Cholesterol CII-Test Wako measuring kit(COD-p-chlorophenol color development method, Wako Pure Chemical Industries Ltd.). For the quantitative determination of phospholipid and cholesterol, a blank test was conducted, and a calibration curve prepared in advanced was used. The phospholipid and cholesterol contents of the bile flowing out during the period of 30 minutes before the administration of the test drug were taken as 100.
# [5] = test system: phospholipid content of bile; test: Variations in the phospholipid content of bile (Phospholipid B-Test Wako); assay type: in vivo, rats; settings: intraduodenal, 100 mg/kg, first one-hour period, pre-administration 30 minutes = 100
# Description: as §1, §2
# [6] = naturally occurring, used in oriental medicine as "Ryuno"; cited from earlier work
structure (smiles),measurement,setting,value
CC1(C)[C@@H]2CC[C@@]1(C)[C@@H](O)C2 (relative stereo) [(±)-borneol],cholagogic effect (amount of bile flowing out),secretion of bile [1]; 100 mg/kg,also had a cholagogic effect
CC1(C)[C@@H]2CC[C@@]1(C)[C@H](O)C2 (relative stereo) [isoborneol],cholagogic effect (amount of bile flowing out),secretion of bile [1]; 100 mg/kg,also had a cholagogic effect
CC1(C)[C@@H]2CC[C@@]1(C)[C@@H](O)C2 [(+)-borneol],LD50 at 168 h,Acute toxicity test,≥ 10000 mg/kg
same,variations in the solids weight of bile,solids weight of bile,sustained effect to increase the amount of biliary constituents
same,cholagogic effect (amount of bile flowing out),secretion of bile [2],more sustained greater cholagogic effect than the control drug
same,bile acid contents of bile,[3],secretion of remarkably increased amounts of chenodeoxylic acid and like bile acids
same,total bile acid content of bile,[3],remarkable increase in the total bile acid content
same,cholesterol content of bile,[4],approximately at the same level as those of the normal bile
same,cholagogic effect (amount of bile flowing out),secretion of bile [1]; 100 mg/kg,sustained great cholagogic effect over the entire observation period of 5 hours
same,phospholipid content of bile,[5],approximately at the same level as those of the normal bile
same,empirically known pharmacological activities,[6],"analgesic, anti-inflammatory, sedative and anti-palpitation effects and central depressant activity"
CC1(C)[C@H]2CC[C@]1(C)[C@H](O)C2 [(-)-borneol],cholagogic effect (amount of bile flowing out),secretion of bile [1]; 100 mg/kg,also had a cholagogic effect
CC(=O)OC1CC2CCC1(C)C2(C)C (centres unmarked) [bornyl acetate],cholagogic effect (amount of bile flowing out),secretion of bile [1]; 100 mg/kg,also had a cholagogic effect
CC1(C)C2CCC1(C)C(OC1O[C@H](CO)[C@@H](O)[C@H](O)[C@H]1O)C2 (some centres unmarked) [bornyl glucoside],cholagogic effect (amount of bile flowing out),secretion of bile [1]; 200 mg/kg (bornyl glucoside),also had a cholagogic effect
CC(=O)O[C@@H]1C[C@H]2CC[C@]1(C)C2(C)C [isobornyl acetate],cholagogic effect (amount of bile flowing out),secretion of bile [1]; 100 mg/kg,also had a cholagogic effect
"C[C@H](CCC(=O)O)[C@H]1CC[C@H]2[C@@H]3C(=O)C[C@@H]4CC(=O)CC[C@]4(C)[C@H]3CC(=O)[C@]12C [sodium dehydrocholate, reference compound]",LD50 at 168 h,Acute toxicity test,2500 mg/kg
same,bile acid contents of bile,[3],slight transient tendency to produce increased amounts of bile acids including deoxycholic acid only 30 minutes after the administration
same,cholesterol content of bile,[4],tendency for the phospholipid and cholesterol contents of bile to increase
same,cholagogic effect (amount of bile flowing out),secretion of bile [1]; 100 mg/kg,transient great cholagogic effect 30 minutes after the administration
same,phospholipid content of bile,[5],tendency for the phospholipid and cholesterol contents of bile to increase
